Measured values taken from PMC10327353 (Breast Cancer Research : BCR, 2023).

Legend:
BT474C1 cells = assay: Cell proliferation assay (CellTiter-Glo), BT474C1; type: cell-based, human; details: Homo sapiens; BT474C1, 72 hrs
Description: BT474C1-Luci Mono1 cells were seeded in 384-well plates at 1500 cells/well in DMEM medium containing 10% FBS and 1 mM Oxaloacetic acid (OAA). A431 cells were seeded in 384-well plates at 1,000 cells/well in DMEM medium containing 10% FBS. After overnight incubation, cells were treated with compounds at various concentrations for 3 days. Then cell viability was measured using a CellTiter-Glo Luminescent Cell Viability Assay from Promega Corp. according to the manufacturer's instructions.

P-gp (MDR1) = molecular target: T1, P-gp (MDR1) (Homo sapiens, UniProt P08183); assay: P-gp efflux ratio, bi-directional transport assay; type: in vitro ADME
T1 construct: expressed in transfected cells; host or cells: MDCKII-MDR1
From the text: Passive permeability (Papp) characterizes the rate across the cell membrane due to passive diffusion. A high permeability enables the rapid establishment of equilibrium among plasma, CSF, and brain compartments. Except for passive permeability, sufficient unbound drug concentration in the brain is governed by efflux transporters, including P-gp (MDR1, ABCB1) and BCRP, at BBB. Efflux ratio (ER) reflects the liability of a compound to be pumped out of the brain by BBB efflux transporters, which is indicated by the distribution disequilibrium between the plasma and the brain compartments.
[…] The adjusted efflux ratio was used to determine if DZD1516/DZ2678 underwent active efflux. Verapamil, a P-glycoprotein (P-gp) inhibitor, was used to identify if any active transport processes were mediated through P-gp. The apical-to-basolateral (A-B) and basolateral-to-apical (B-A) transport of DZD1516/DZ2678 in HBSS (25 mM HEPES, pH 7.4) with 0.1% BSA was measured across MDCKII-MDR1 cell monolayers in the absence and presence of the P-gp inhibitor, verapamil (100 μM). The apical-to-basolateral (A-B) and basolateral-to-apical (B-A) transport of DZD1516/DZ2678 in HBSS (25 mM HEPES, pH 7.4) with 0.1% BSA was also measured across MDCKII cell monolayers in the absence and presence of the P-gp inhibitor, verapamil. Incubations were performed at approximately 37°C for 120 min, with the functionality of the test system being confirmed using 5 μM digoxin as a positive control substrate. […] determined by quantifying substrate concentration in the incubation medium of the donor compartment at the beginning of the incubation period and both donor and receiver compartments at the end of the incubation period. The data was used to calculate the apparent permeability (Papp). All incubations were performed in triplicate, and the integrity of the cell monolayers was confirmed using the marker Lucifer yellow.

BCRP = molecular target: T2, BCRP (Homo sapiens, UniProt Q9UNQ0); assay: BCRP efflux ratio, bi-directional transport assay; type: in vitro ADME
T2 construct: endogenous in cells; host or cells: Caco-2
T2 sequence (Q9UNQ0 whole entry): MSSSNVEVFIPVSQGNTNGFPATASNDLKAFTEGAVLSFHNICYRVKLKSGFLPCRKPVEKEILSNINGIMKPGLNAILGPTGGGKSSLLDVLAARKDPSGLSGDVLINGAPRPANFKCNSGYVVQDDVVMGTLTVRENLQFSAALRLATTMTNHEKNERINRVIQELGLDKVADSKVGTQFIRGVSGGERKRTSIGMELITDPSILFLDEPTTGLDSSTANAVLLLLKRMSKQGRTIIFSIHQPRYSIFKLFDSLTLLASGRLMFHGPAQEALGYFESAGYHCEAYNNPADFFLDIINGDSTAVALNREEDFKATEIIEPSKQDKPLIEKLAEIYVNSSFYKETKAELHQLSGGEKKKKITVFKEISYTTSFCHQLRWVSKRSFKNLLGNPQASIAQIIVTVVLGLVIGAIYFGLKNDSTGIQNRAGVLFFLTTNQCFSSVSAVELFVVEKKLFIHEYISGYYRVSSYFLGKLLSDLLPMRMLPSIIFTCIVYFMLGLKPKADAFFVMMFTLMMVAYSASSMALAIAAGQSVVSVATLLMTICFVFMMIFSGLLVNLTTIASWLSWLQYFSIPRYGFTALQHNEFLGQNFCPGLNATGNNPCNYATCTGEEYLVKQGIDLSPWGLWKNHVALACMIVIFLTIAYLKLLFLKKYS

T1 sequence (P08183 whole entry): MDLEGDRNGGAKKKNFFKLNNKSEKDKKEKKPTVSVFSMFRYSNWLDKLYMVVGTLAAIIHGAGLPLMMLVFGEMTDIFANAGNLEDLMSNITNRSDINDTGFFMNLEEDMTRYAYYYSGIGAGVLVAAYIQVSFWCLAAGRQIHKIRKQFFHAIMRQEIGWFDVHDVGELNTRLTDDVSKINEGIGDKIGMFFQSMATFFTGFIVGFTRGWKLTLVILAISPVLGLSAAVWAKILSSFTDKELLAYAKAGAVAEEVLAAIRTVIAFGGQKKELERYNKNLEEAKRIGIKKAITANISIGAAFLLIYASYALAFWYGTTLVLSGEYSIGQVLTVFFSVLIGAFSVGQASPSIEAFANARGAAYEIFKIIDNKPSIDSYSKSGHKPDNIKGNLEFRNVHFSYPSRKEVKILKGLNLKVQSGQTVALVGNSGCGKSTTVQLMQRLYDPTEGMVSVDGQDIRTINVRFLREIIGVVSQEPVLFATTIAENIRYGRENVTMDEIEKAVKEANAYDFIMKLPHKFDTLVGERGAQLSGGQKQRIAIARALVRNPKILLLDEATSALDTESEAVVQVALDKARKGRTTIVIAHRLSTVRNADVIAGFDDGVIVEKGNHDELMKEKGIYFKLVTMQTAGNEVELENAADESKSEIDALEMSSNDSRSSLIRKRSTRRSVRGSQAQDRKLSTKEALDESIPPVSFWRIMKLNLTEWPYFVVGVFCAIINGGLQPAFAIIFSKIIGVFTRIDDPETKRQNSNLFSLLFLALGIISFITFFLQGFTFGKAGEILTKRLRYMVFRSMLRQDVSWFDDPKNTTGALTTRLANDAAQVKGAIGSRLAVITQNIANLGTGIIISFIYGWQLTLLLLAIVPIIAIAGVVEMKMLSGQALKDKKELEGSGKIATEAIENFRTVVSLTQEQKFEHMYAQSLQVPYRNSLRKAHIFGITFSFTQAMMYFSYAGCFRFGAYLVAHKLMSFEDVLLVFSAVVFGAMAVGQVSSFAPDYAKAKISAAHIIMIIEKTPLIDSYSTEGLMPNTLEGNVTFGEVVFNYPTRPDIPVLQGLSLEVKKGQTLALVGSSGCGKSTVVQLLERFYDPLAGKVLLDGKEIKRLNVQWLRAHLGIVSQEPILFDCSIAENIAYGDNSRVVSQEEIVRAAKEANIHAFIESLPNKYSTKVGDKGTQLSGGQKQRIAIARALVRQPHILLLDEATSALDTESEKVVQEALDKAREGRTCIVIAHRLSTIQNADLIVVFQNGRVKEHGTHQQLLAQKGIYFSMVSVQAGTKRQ

COc1cc(O[C@H]2CCN(C)CC2(F)F)c2c(Nc3ccc(Oc4ccn5ncnc5c4)c(C)c3)ncnc2c1 [DZD1516]
GI50 (BT474C1 cells): 20 nM | efflux ratio at 120 min, 1 µM (P-gp (MDR1); human, MDCK-MDR1, pH 7.4): < 2 | Efflux ratio P-gp @1 µM (P-gp (MDR1); listed as Cpd-5): 1.6 | Efflux ratio BCRP @1 µM (BCRP; 1 µM, listed as Cpd-5): 1.3 | efflux ratio at 120 min, 1 µM (BCRP; human, Caco-2, pH 7.4, 1 µM): < 2
